# Test results: US12503438B2, “Compounds for the treatment of kinase-dependent disorders” (Exelixis, Inc., priority 2019, dated 2025)
# How the values were obtained:
# [1] = target: T1, Human Mer (Homo sapiens, UniProt Q12866); assay: Human Mer kinase assay (33P-phosphoryl transfer radiometric, KinaseProfiler); conditions: biochemical activity; 10 μM ATP
# T1 construct: Human Mer (residues R557-E882 with H628Q and R794A, 0.7 nM); purchased Eurofins Pharma Discovery Services UK Limited (KinaseProfiler service)
# T1 sequence (Q12866 557-882 limits assumed): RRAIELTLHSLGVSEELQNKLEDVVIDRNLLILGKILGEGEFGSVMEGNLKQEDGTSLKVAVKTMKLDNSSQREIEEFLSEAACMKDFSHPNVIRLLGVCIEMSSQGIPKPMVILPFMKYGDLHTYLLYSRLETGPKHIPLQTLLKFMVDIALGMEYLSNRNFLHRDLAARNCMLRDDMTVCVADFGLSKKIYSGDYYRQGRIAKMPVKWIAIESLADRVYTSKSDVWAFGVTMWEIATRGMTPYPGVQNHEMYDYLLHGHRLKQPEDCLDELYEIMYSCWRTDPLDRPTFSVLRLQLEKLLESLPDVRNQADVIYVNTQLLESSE
# Description: Kinase activity and compound inhibition were investigated using the ^33P-Phosphoryl transfer radiometric kinase assay, performed using the KinaseProfiler™ service of Eurofins Pharma Discovery Services UK Limited. Dose-response experiments were performed using nine compound concentrations in a 96-well microtiter plate. For each assay, all compounds were prepared to a 50× final assay concentration (50 μM) in 100% DMSO, then diluted in a half-log series, with the final top concentration at 1 μM. This working stock of the compound was added to the assay well as the first component in the reaction, followed by the remaining components as detailed in the following assay protocols below. The positive control wells (100% kinase activity) contain all components of the reaction including 2% DMSO (control for solvent effects), except the compound of interest. Blank wells contain all components of the reaction, with the reference inhibitor, staurosporine. This reference compound was used to abolish kinase activity and generated the 0% kinase activity base-line. IC50 values were calculated by nonlinear regression analysis using the sigmoidal dose-response (variable slope) curve fit on XLFit version 5.3 (ID Business Solutions).
# Human Mer (residues R557-E882 with H628Q and R794A, 0.7 nM) was incubated with 8 mM MOPS pH 7.0, 0.2 mM EDTA, 30 mM NaCl, 250 μM GGMEDIYFEFMGGKKK, 10 mM magnesium acetate and 10 μM [y-^33P-ATP]. The reaction was initiated by the addition of the Mg/ATP mix. After incubation for 40 minutes at room temperature, the reaction was stopped by the addition of phosphoric acid to a concentration of 0.5%. A reaction aliquot of 10 μL was then spotted onto a P30 filtermat and washed four times for 4 minutes in 0.425% phosphoric acid and once in methanol prior to drying and scintillation counting. Incorporated ^33P was measured using the Wallac Microbeta scintillation counter (Perkin Elmer).
# [2] = target: T2, AXL (Homo sapiens, UniProt P30530); assay: AXL autophosphorylation ELISA in A-172 cells; assay type: cell-based; conditions: cellular activity, Gas6-stimulated, phospho-AXL ELISA
# T2 construct: endogenous in cells; host or cells: A-172 glioblastoma cells (ATCC #CRL-1620)
# T2 sequence (P30530 26-894): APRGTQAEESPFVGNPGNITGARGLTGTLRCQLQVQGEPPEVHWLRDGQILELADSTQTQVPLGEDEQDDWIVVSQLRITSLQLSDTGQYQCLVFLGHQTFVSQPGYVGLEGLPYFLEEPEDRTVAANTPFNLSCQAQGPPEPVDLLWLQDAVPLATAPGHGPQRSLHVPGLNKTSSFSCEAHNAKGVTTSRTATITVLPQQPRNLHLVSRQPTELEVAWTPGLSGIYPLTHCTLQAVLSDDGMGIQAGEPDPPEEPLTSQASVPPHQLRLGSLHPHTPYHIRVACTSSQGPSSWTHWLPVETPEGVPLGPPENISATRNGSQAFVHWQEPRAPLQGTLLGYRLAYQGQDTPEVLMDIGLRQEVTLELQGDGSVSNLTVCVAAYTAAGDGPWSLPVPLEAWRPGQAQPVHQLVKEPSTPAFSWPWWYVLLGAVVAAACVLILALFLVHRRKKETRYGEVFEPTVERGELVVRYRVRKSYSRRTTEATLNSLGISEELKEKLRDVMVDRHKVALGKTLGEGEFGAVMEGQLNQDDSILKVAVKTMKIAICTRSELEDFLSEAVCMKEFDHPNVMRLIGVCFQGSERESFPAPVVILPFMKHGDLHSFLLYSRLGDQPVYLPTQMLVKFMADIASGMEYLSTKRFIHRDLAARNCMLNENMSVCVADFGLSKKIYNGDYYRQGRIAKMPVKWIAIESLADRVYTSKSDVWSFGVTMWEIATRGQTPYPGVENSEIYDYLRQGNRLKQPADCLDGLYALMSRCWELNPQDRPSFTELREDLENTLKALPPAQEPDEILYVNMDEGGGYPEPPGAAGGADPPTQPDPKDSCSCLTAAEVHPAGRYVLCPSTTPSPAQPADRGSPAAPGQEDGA
# Method in brief: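 Serum-starved (24 h) A-172 glioblastoma cells got an 8-point compound series (0.3% DMSO) for 1 h, then 1 μg/mL human Gas6 for 15 min. Lysate phospho-AXL quantified by ELISA against phospho-AXL standard, normalized to DMSO and reference-inhibitor controls; IC50 by 4-parameter logistic fit.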
IC50 [1] [nM],IC50 [2] [nM],SMILES
≤ 10,≤ 10,"COc1cc2c(Oc3ccc(NC(=O)C4(C(=O)Nc5ccc(F)cc5)CC4)cc3)ccnc2cc1-c1cnn(C)c1 [Compound 76, 1-N′-(4-Fluorophenyl)-1-N-[4-[6-methoxy-7-(1-methylpyrazol-4-yl)quinolin-4-yl]oxyphenyl]cyclopropane-1,1-dicarboxamide]"
≤ 10,10 to 100,"Cn1ccnc1-c1ccc2c(Oc3ccc(NC(=O)C4(C(=O)Nc5ccc(F)cc5)CC4)cc3)ccnc2c1 [Compound 75, 1-N′-(4-Fluorophenyl)-1-N-[4-[7-(1-methylimidazol-2-yl)quinolin-4-yl]oxyphenyl]cyclopropane-1,1-dicarboxamide]"
≤ 10,10 to 100,"Cc1cc2c(Oc3ccc(NC(=O)C4(C(=O)Nc5ccc(F)cc5)CC4)cc3)ccnc2cc1-c1cnn(C)c1 [Compound 78, 1-N′-(4-Fluorophenyl)-1-N-[4-[6-methyl-7-(1-methylpyrazol-4-yl)quinolin-4-yl]oxyphenyl]cyclopropane-1,1-dicarboxamide]"
≤ 10,100 to 300,"O=C(Nc1ccc(F)cc1)C1(C(=O)Nc2ccc(Oc3ccnc4cc(C5CCNC5)ccc34)cc2)CC1 (centres unmarked) [Compound 83, 1-N′-(4-Fluorophenyl)-1-N-[4-(7-pyrrolidin-3-ylquinolin-4-yl)oxyphenyl]cyclopropane-1,1-dicarboxamide]"
≤ 10,10 to 100,"O=C(Nc1ccc(F)cc1)C1(C(=O)Nc2ccc(Oc3ccnc4cc(-c5cccnc5)ccc34)cc2)CC1 [Compound 25, 1-N′-(4-Fluorophenyl)-1-N-[4-(7-pyridin-3-ylquinolin-4-yl)oxyphenyl]cyclopropane-1,1-dicarboxamide]"
≤ 10,≤ 10,"O=C(Nc1ccc(F)cc1)C1(C(=O)Nc2ccc(Oc3ccnc4cc(-c5cn[nH]c5)ccc34)cc2)CC1 [Compound 67, 1-N′-(4-Fluorophenyl)-1-N-[4-[7-(1H-pyrazol-4-yl)quinolin-4-yl]oxyphenyl]cyclopropane-1,1-dicarboxamide]"
≤ 10,10 to 100,"O=C(Nc1ccc(F)cc1)C1(C(=O)Nc2ccc(Oc3ccnc4cc(-c5ncco5)ccc34)cc2)CC1 [Compound 66, 1-N′-(4-Fluorophenyl)-1-N-[4-[7-(1,3-oxazol-2-yl)quinolin-4-yl]oxyphenyl]cyclopropane-1,1-dicarboxamide]"
100 to 1000,10 to 100,"CC1Cc2cc(F)ccc2N1C(=O)C1(C(=O)Nc2ccc(Oc3ccnc4cc(-c5cnn(C)c5)ccc34)cc2)CC1 (centres unmarked) [Compound 80, 1-(5-Fluoro-2-methyl-2,3-dihydroindole-1-carbonyl)-N-[4-[7-(1-methylpyrazol-4-yl)quinolin-4-yl]oxyphenyl]cyclopropane-1-carboxamide]"
≤ 10,≤ 10,"O=C(Nc1ccc(F)cc1)C1(C(=O)Nc2ccc(Oc3ccnc4cc(-c5cnn(C6COC6)c5)ccc34)cc2)CC1 [Compound 24, 1-N′-(4-Fluorophenyl)-1-N-[4-[7-[1-(oxetan-3-yl)pyrazol-4-yl]quinolin-4-yl]oxyphenyl]cyclopropane-1,1-dicarboxamide]"
≤ 10,10 to 100,"O=C(Nc1ccc(F)cc1)C1(C(=O)Nc2ccc(Oc3ccnc4cc(-c5ncc[nH]5)ccc34)cc2)CC1 [Compound 74, 1-N′-(4-Fluorophenyl)-1-N-[4-[7-(1H-imidazol-2-yl)quinolin-4-yl]oxyphenyl]cyclopropane-1,1-dicarboxamide]"
≤ 10,≤ 10,"CC(=O)N1CCC(n2cc(-c3ccc4c(Oc5ccc(NC(=O)C6(C(=O)Nc7ccc(F)cc7)CC6)cc5)ccnc4c3)cn2)CC1 [Compound 62, 1-N-[4-[7-[1-(1-Acetylpiperidin-4-yl)pyrazol-4-yl]quinolin-4-yl]oxyphenyl]-1-N′-(4-fluorophenyl)cyclopropane-1,1-dicarboxamide]"
≤ 10,≤ 10,"Cn1cnc(-c2ccc3c(Oc4ccc(NC(=O)C5(C(=O)Nc6ccc(F)cc6)CC5)cc4)ccnc3c2)c1 [Compound 69, 1-N′-(4-Fluorophenyl)-1-N-[4-[7-(1-methylimidazol-4-yl)quinolin-4-yl]oxyphenyl]cyclopropane-1,1-dicarboxamide]"
≤ 10,10 to 100,"O=C(Nc1ccc(F)cc1)C1(C(=O)Nc2ccc(Oc3ccnc4cc(-c5nnco5)ccc34)cc2)CC1 [Compound 73, 1-N′-(4-Fluorophenyl)-1-N-[4-[7-(1,3,4-oxadiazol-2-yl)quinolin-4-yl]oxyphenyl]cyclopropane-1,1-dicarboxamide]"
10 to 100,> 300,"C#Cc1ccc2c(Oc3ccc(NC(=O)C4(C(=O)Nc5ccc(F)cc5)CC4)cc3)ccnc2c1 [Compound 64, 1-N-[4-(7-Ethynylquinolin-4-yl)oxyphenyl]-1-N′-(4-fluorophenyl)cyclopropane-1,1-dicarboxamide]"
≤ 10,10 to 100,"Cn1ncc(-c2ccc3c(Oc4ccc(NC(=O)C5(C(=O)Nc6ccc(F)cc6)CC5)cc4)ccnc3c2)n1 [Compound 86, 1-N′-(4-Fluorophenyl)-1-N-[4-[7-(2-methyltriazol-4-yl)quinolin-4-yl]oxyphenyl]cyclopropane-1,1-dicarboxamide]"
≤ 10,≤ 10,"O=C(Nc1ccc(F)cc1)C1(C(=O)Nc2ccc(Oc3ccnc4cc(-c5cnn(CCO)c5)ccc34)cc2)CC1 [Compound 18, 1-N′-(4-Fluorophenyl)-1-N-[4-[7-[1-(2-hydroxyethyl)pyrazol-4-yl]quinolin-4-yl]oxyphenyl]cyclopropane-1,1-dicarboxamide]"
10 to 100,10 to 100,"Cn1cc(-c2ccc3c(Oc4ccc(NC(=O)C5(C(=O)N6CCc7cc(F)ccc76)CC5)cc4)ccnc3c2)cn1 [Compound 81, 1-(5-Fluoro-2,3-dihydroindole-1-carbonyl)-N-[4-[7-(1-methylpyrazol-4-yl)quinolin-4-yl]oxyphenyl]cyclopropane-1-carboxamide]"
≤ 10,≤ 10,"CS(=O)(=O)n1cc(-c2ccc3c(Oc4ccc(NC(=O)C5(C(=O)Nc6ccc(F)cc6)CC5)cc4)ccnc3c2)cn1 [Compound 79, 1-N′-(4-Fluorophenyl)-1-N-[4-[7-(1-methylsulfonylpyrazol-4-yl)quinolin-4-yl]oxyphenyl]cyclopropane-1,1-dicarboxamide]"
≤ 10,≤ 10,"O=C(Nc1ccc(F)cc1)C1(C(=O)Nc2ccc(Oc3ccnc4cc(-c5ccncc5)ccc34)cc2)CC1 [Compound 26, 1-N′-(4-Fluorophenyl)-1-N-[4-(7-pyridin-4-ylquinolin-4-yl)oxyphenyl]cyclopropane-1,1-dicarboxamide]"
